Data published in PMC8705783, “The Effect of Conjugation with Octaarginine, a Cell-Penetrating Peptide on Antifungal Activity of Imidazoacridinone Derivative” (International Journal of Molecular Sciences, 2021).
Values after ≈ are worked out from the molar mass of the structure shown.

Legend:
reference strains = experiment: Antifungal activity, summary over reference strains; type: cell-based; parameters: key to Antifungal Activity (level): (−) Means no antifungal activity; (±) low activity; (+) moderate activity; (++) high activity at the concentration mentioned; conditions: for Antifungal Activity (level): Table 3; for antifungal activity: as reported in Table 1
yeast topoisomerase II [1] = molecular target: T1, yeast topoisomerase II (Saccharomyces cerevisiae, UniProt P06786); experiment: Yeast topoisomerase II relaxation assay; type: biochemical; conditions: supercoiled pBR322, tested at 1-200 μM
T1 sequence (P06786 whole entry): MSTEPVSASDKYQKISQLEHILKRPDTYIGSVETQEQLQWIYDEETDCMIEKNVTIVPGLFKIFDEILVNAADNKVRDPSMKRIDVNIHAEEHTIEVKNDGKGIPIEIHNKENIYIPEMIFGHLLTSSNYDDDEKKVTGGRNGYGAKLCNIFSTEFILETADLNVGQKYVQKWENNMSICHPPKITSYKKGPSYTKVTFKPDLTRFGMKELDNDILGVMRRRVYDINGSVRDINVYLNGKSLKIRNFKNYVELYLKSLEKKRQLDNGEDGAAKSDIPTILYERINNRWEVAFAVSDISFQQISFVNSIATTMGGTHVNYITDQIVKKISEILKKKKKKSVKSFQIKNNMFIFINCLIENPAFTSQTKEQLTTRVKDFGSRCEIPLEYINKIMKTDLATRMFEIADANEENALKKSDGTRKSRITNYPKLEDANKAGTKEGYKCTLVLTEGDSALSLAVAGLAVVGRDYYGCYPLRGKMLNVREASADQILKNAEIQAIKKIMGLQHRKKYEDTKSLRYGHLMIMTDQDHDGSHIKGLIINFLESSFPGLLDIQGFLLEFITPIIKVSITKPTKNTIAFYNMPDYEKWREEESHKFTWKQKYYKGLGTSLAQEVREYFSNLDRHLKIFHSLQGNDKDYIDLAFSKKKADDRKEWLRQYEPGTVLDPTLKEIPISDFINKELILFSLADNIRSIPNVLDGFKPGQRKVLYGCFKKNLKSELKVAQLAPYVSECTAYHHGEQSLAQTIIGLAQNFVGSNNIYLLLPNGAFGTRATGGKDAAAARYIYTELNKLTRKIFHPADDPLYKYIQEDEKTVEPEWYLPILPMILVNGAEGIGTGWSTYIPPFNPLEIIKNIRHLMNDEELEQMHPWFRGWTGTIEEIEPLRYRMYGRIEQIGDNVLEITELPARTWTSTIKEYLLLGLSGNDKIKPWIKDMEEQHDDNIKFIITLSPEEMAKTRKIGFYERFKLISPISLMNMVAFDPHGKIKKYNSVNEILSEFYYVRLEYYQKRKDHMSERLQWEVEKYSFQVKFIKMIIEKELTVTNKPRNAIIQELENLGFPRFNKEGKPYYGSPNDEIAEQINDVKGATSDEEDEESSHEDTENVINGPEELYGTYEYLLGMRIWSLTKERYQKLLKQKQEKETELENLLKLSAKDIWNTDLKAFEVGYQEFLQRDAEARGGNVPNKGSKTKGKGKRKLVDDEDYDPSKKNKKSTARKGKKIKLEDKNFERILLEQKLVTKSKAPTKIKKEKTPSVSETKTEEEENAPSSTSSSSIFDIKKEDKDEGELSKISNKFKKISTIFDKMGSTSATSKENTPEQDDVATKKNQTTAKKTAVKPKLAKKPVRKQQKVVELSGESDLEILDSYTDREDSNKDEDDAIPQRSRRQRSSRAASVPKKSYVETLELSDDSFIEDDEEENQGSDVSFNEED
Description: Due to the known activity of acridine and acridone derivatives as human topoisomerase inhibitors widely analysed for cancer chemotherapy, we decided to analyse the influence of Compound 1 as well as its R8 conjugate on the fungal equivalent of that enzyme. The relaxation of supercoiled plasmid DNA by yeast topoisomerase II (yTOPO II) was studied in the presence of different concentrations of both compounds.
The inhibition of yeast topoisomerase II was analysed according to the relaxation assay kit from Inspiralis (Inspiralis Limited, Norwich, UK). Briefly, 250 ng of supercoiled pBR322 DNA (Thermo Fisher Scientific, Waltham, MA, USA), 1 mM ATP (Inspiralis Limited, UK), and 1–200 μM of the analysed compound were mixed with reaction buffer (1 mM Tris-HCl (pH 7.9), 10 mM KCl, 0.5 mM MgCl2, 0.2 % (by volume) glycerol). The reaction was initiated by the addition of an enzyme, allowed to proceed at 30 °C for 30 min and terminated by addition of 40% (m/V) sucrose, 100 mM Tris-HCl pH 8, 10 mM EDTA, and 0.5 mg mL^−1 Bromophenol Blue. Two-step extraction with chloroform:isoamyl alcohol (24:1, by volume) and butanol water was performed and mixtures were analysed on 1% agarose gel in 1 × TAE buffer, 3h, 4.5 V cm^−1. Gel was stained in GelRed 3 × staining solution (Biotium, Fremont, CA, USA) for 30 min and photographed with Gel Doc XR+Gel Documentation System (Bio-Rad: Hercules, CA, USA).

yeast topoisomerase II [2] = molecular target: T1, yeast topoisomerase II; experiment: Formation of cleavable complexes in vitro; type: biochemical; conditions: 0.1-10 μM, pBR322 plasmid DNA
Description: Cleavage assay of yeast topoisomerase II was performed according to the formation of cleavable complexes kit from Inspiralis. The experimental conditions were the same as for the relaxation assay except for the amount of yeast topoisomerase II (16 times more enzyme was used). The reaction was initiated by the addition of the enzyme and allowed to proceed for 10 min at 30 °C. Then, 0.35% SDS and 0.3 mg mL^−1 proteinase K (A&A Biotechnology, Gdynia, Poland) was added, and the probes were incubated in 56 °C for 1 h. The reaction was terminated by the addition of 100 mM Tris-HCl pH 8, 10 mM EDTA, 0.5 mg mL^−1 Bromophenol Blue. Extraction with chloroform:isoamyl alcohol (24:1, by volume) was performed, and mixtures were analysed on the 1.2% agarose gel with 0.5 µg mL^−1 ethidium bromide in 1x TAE buffer, 18 h, 1.1 V cm^−1. Gel was photographed with the Gel Doc XR+Gel Documentation System.

HEK-293 = experiment: cells; type: cell-based, human; conditions: Homo sapiens; HEK293, 72 h treatment, MTT, ± SD; read-out: IC50 (antiproliferative activity)
Description: (§1) The investigated compounds were screened for their in vitro antiproliferative activity towards a human embryonic kidney cell line (HEK-293) and human liver cancer cell line (HEPG2) using colorimetric MTT.
(§2) The human embryonic kidney cell line (HEK-293) and human liver cancer cell line (HEPG2) were purchased from ATCC (Manassas, Virginia, USA). HEK-293 was cultured in Dulbecco’s Modified Eagle Medium (Corning, NY, USA) and HEPG2 in Minimum Essential Medium Eagle (Corning, NY, USA). For each cell line, the culture medium was supplemented with 10% fetal bovine serum, 2 mM L-glutamine, and antibiotics: penicillin 62.6 µg mL^−1 and streptomycin 40 µg mL^−1. The cells were cultured at the humidified atmosphere of 5% CO2/95% air and routinely tested for Mycoplasma contamination.
(§3) Antiproliferative activity of the compounds was determined by (3-(4,5-dimethylthiazol-2-yl)-2,5-diphenyltetrazolium bromide (MTT, Sigma-Aldrich, St. Louis, MO, USA) assay, which involves the assessment of cell viability by the measurement of the cellular oxidoreductase activity. Briefly, cells were seeded into 96-well culture plates and were allowed to adhere overnight. The investigated compounds were dissolved in DMSO and added to wells (1% final concentration of DMSO) in various concentrations. After 72 h incubation, 20 µL of MTT solution in PBS (4 mg mL^−1) was added to each well, and plates were incubated for an additional 3h in standard culture conditions. After that, the medium was aspirated, and formazan crystals were dissolved in DMSO. The absorbance was determined at 570 nm with a microplate reader (Asys UVM 340 Microplate Reader, Biochrom, Cambridge, UK). All experiments were performed three times independently in triplicate.

HEPG2 = experiment: cells; type: cell-based, human; conditions: Homo sapiens; HEPG2, 72 h treatment, MTT, ± SD; read-out: IC50 (antiproliferative activity)
Description: as §1, §2, §3

[3] = system: Candida albicans ATCC 10231; conditions: for IC50 HEK293/MIC90 (mycostatic selectivity index): HEK293 vs Candida albicans ATCC 10231, MIC converted to micromolar; for IC50 HEPG2/MIC90 (mycostatic selectivity index): HEPG2 vs Candida albicans ATCC 10231
[4] = system: Candida glabrata ATCC 90030; conditions: for IC50 HEK293/MIC90 (mycostatic selectivity index): HEK293 vs Candida glabrata ATCC 90030; for IC50 HEPG2/MIC90 (mycostatic selectivity index): HEPG2 vs Candida glabrata ATCC 90030
Candida krusei ATCC 6258 [5] = conditions: for IC50 HEK293/MIC90 (mycostatic selectivity index): HEK293 vs Candida krusei ATCC 6258; for IC50 HEPG2/MIC90 (mycostatic selectivity index): HEPG2 vs Candida krusei ATCC 6258
[6] = system: Candida parapsilosis ATCC 22019; conditions: for IC50 HEK293/MIC90 (mycostatic selectivity index): HEK293 vs Candida parapsilosis ATCC 22019; for IC50 HEPG2/MIC90 (mycostatic selectivity index): HEPG2 vs Candida parapsilosis ATCC 22019
[7] = system: Saccharomyces cerevisiae ATCC 9763; conditions: for IC50 HEK293/MIC90 (mycostatic selectivity index): HEK293 vs Saccharomyces cerevisiae ATCC 9763; for IC50 HEPG2/MIC90 (mycostatic selectivity index): HEPG2 vs Saccharomyces cerevisiae ATCC 9763
[8] = system: Candida albicans ATCC 10231; experiment: microbe, parasite or virus in culture
[9] = system: Candida glabrata ATCC 90030; experiment: microbe, parasite or virus in culture; conditions: Nakaseomyces glabratus, ATCC90030, 24 h, pH 7
Candida krusei ATCC 6258 [10] = experiment: microbe, parasite or virus in culture; conditions: Pichia kudriavzevii, ATCC6258, 24 h, pH 7
[11] = system: Candida parapsilosis ATCC 22019; experiment: microbe, parasite or virus in culture; conditions: Lodderomyces parapsilosis, ATCC22019, 24 h, pH 7
[12] = system: Saccharomyces cerevisiae ATCC 9763; experiment: microbe, parasite or virus in culture; conditions: ATCC9763, 24 h, pH 7
Candida albicans B3 = experiment: microbe, parasite or virus in culture
Candida albicans B4 = experiment: microbe, parasite or virus in culture
Candida albicans Gu4 = experiment: microbe, parasite or virus in culture
Candida albicans Gu5 = experiment: microbe, parasite or virus in culture
Candida albicans F2 = experiment: microbe, parasite or virus in culture
Candida albicans F5 = experiment: microbe, parasite or virus in culture
[13] = system: C. albicans ATCC 10231 cells; experiment: Fluorescence microscopy of uptake and accumulation; conditions: 256 μg mL^−1 (8 × MFC of Compound 1-R8)
Description: Candida albicans ATCC 10231 strain were grown in the YPG medium overnight (16–18 h) at 30 °C, washed twice with sterile phosphate-buffered saline (PBS) and resuspended in RPMI 1640 at a cell density of 2 × 10^7 cells mL^−1. The inoculum (5 mL) was added to 5 mL RPMI 1640 with 256 μg mL^−1 of tested compounds. After appropriate period of time, 2 mL of cell suspension was washed three times with sterile phosphate-buffered saline (PBS). If appropriate, cells where resuspended in 1 mL of PBS and 5 μL of 2 mg mL^−1 propidium iodide (PI, Sigma-Aldrich, St. Louis, MO, USA) were added and incubated for 30 min and then rinsed three times with PBS buffer. After that, cells were resuspended in 5 μL 90% (by volume) glycerol/10% (by volume) 1 × PBS and transferred to a microscopic slide. The cells were examined with the Olympus BX-60 fluorescence microscope (λex = 330–385 nm, λem ≥ 420 nm, lens × 40) equipped with the Olympus XC50 digital camera (Olympus Corporation, Tokyo, Japan) or LSM800 T-PMT confocal microscope with a CCD camera (ZEISS, Göttingen, Germany). Images were analysed and processed with cellSens Dimension and ZEN Blue software [47].

HEK-293 and HEPG2 = experiment: Antiproliferative activity, MTT, both tested cell lines; type: cell-based; conditions: Homo sapiens; Table 5
Description: as §1
as §2, with “The cells were cultured at the humidified atmosphere of 5% CO2/95% air and routinely tested for Mycoplasma contamination.” left out
as §3, with “After that, the medium was aspirated, and formazan crystals were dissolved in DMSO. The absorbance was determined at 570 nm with a microplate reader (Asys UVM 340 Microplate Reader, Biochrom, Cambridge, UK). All experiments were performed three times independently in triplicate.” left out

Candida albicans = system: Candida albicans; parameters: method as in PMID 23563951; conditions: cited from earlier work
human topoisomerase II = conditions: cited from earlier work
Candida albicans cells = system: Candida albicans cells; parameters: method as in PMID 23563951; conditions: cited from earlier work
yeast topoisomerase II [14] = molecular target: T1, yeast topoisomerase II; parameters: method as in PMID 33572407; conditions: read-out: IC50 (yeast topoisomerase II relaxation); cited from earlier work

NCCNc1ccc2ncn3c4ccc(O)cc4c(=O)c1c23 [Compound 1, 5-((2-Aminoethyl)amino)-8-hydroxy-6H-imidazo[4,5,1-de]acridin-6-one]
Antifungal Activity (level) (reference strains): −
antifungal activity (reference strains): no antifungal activity was observed
concentration that totally inhibited yeast topoisomerase II-mediated relaxation (yeast topoisomerase II [1]): 50 µM
formation of DNA–yeast topoisomerase II cleavable complexes (yeast topoisomerase II [2]): stimulated the formation of DNA–yeast topoisomerase II cleavable complexes
IC50 (HEK-293): 550 ± 125 nM
IC50 (HEPG2): 364 ± 13 nM
IC50 HEK293/MIC90 (mycostatic selectivity index) [3]: <0.0058
IC50 HEPG2/MIC90 (mycostatic selectivity index) [3]: <0.0038
IC50 HEK293/MIC90 (mycostatic selectivity index) [4]: <0.0058
IC50 HEPG2/MIC90 (mycostatic selectivity index) [4]: <0.0038
IC50 HEK293/MIC90 (mycostatic selectivity index) (Candida krusei ATCC 6258 [5]): <0.0058
IC50 HEPG2/MIC90 (mycostatic selectivity index) (Candida krusei ATCC 6258 [5]): <0.0038
IC50 HEK293/MIC90 (mycostatic selectivity index) [6]: <0.0058
IC50 HEPG2/MIC90 (mycostatic selectivity index) [6]: <0.0038
IC50 HEK293/MIC90 (mycostatic selectivity index) [7]: <0.0058
IC50 HEPG2/MIC90 (mycostatic selectivity index) [7]: <0.0038
MIC90 ([8]; ATCC10231): > 64 µg/mL
MIC90 ([8]; ATCC10231, 24 h, pH 7): > 64 µg/mL
MIC90 [9]: > 64 µg/mL
MIC90 (Candida krusei ATCC 6258 [10]): > 64 µg/mL
MIC90 [11]: > 64 µg/mL
MIC90 [12]: > 64 µg/mL
MIC90 (Candida albicans B3): > 64 µg/mL
MIC90 (Candida albicans B4): > 64 µg/mL
MIC90 (Candida albicans Gu4): > 64 µg/mL
MIC90 (Candida albicans Gu5): > 64 µg/mL
MIC90 (Candida albicans F2): > 64 µg/mL
MIC90 (Candida albicans F5): > 64 µg/mL
uptake and accumulation in fungal cells [13]: no significant accumulation

CCN(CC)CCNc1ccc2ncn3c4ccc(O)cc4c(=O)c1c23 [Compound C-1311, 5-((2-(Diethylamino)ethyl)amino)-8-hydroxy-6H-imidazo[4,5,1-de]acridin-6-one]
Antifungal Activity (level) (reference strains): −
antifungal activity (reference strains): no antifungal activity was observed
concentration that totally inhibited yeast topoisomerase II-mediated relaxation (yeast topoisomerase II [1]): 50 µM
formation of DNA–yeast topoisomerase II cleavable complexes (yeast topoisomerase II [2]): stimulated the formation of DNA–yeast topoisomerase II cleavable complexes
IC50 (HEK-293): 8 ± 7 nM
IC50 (HEPG2): 129 ± 37 nM
IC50 (HEK-293 and HEPG2): ≤ 1000 nM
IC50 HEK293/MIC90 (mycostatic selectivity index) [3]: <0.00005
IC50 HEPG2/MIC90 (mycostatic selectivity index) [3]: <0.00078
IC50 HEK293/MIC90 (mycostatic selectivity index) [4]: <0.00005
IC50 HEPG2/MIC90 (mycostatic selectivity index) [4]: <0.00078
IC50 HEK293/MIC90 (mycostatic selectivity index) (Candida krusei ATCC 6258 [5]): <0.00005
IC50 HEPG2/MIC90 (mycostatic selectivity index) (Candida krusei ATCC 6258 [5]): <0.00078
IC50 HEK293/MIC90 (mycostatic selectivity index) [6]: <0.00005
IC50 HEPG2/MIC90 (mycostatic selectivity index) [6]: <0.00078
IC50 HEK293/MIC90 (mycostatic selectivity index) [7]: <0.00005
IC50 HEPG2/MIC90 (mycostatic selectivity index) [7]: <0.00078
antifungal activity (Candida albicans): no antifungal activity was observed
IC50 (hTOPO II inhibition) (human topoisomerase II): 2.5 µg/mL (≈ 7.13 µM)
IC50 (human topoisomerase II; read-out: IC50 (hTOPO II inhibition)): 6.5 µM
accumulation in Candida albicans cells (Candida albicans cells): unable to accumulate in Candida albicans cells
MIC90 ([8]; ATCC10231, 24 h, pH 7): > 64 µg/mL
MIC90 [9]: > 64 µg/mL
MIC90 (Candida krusei ATCC 6258 [10]): > 64 µg/mL
MIC90 [11]: > 64 µg/mL
MIC90 [12]: > 64 µg/mL

COc1cc(NS(C)(=O)=O)ccc1Nc1c2ccccc2nc2ccccc12 [m-AMSA]
IC50 (yeast topoisomerase II [14]): > 200 µM
